Data taken from patent US11149056B2, “C7 substituted oxysterols and methods of use thereof” (Sage Therapeutics, Inc., priority 2016, dated 2021).

Experiments:
[1] = molecular target: NMDA receptor 2B (Homo sapiens (Human), UniProt Q05586+Q13224); assay: Automated patch-clamp (QPatch HTX), NMDA receptor 2B subtype; format: cell-based; conditions: for Emax: read-out: AVG_ EMAX 2B %
Method: (§1) Automated Patch-Clamp System (OPatch HTX)
(§2) In general, cells will be passaged at a confluence of about 80% to […]. For electrophysiological measurements cells will be harvested at a confluence of about 80% to 90% from sterile culture flasks containing culture complete medium. Cells will be transferred as suspension in PBS to the QPatch 16X or QPatch HTX system to; the centrifuge/washer directly. Standard Laboratory Conditions; Cells will be incubated at 37° C. in a humidified atmosphere with 5% CO2 (rel. humidity about 95%). Culture media: The cells will be continuously maintained in and passaged in sterile culture flasks containing a 1:1 mixture of Dulbecco's modified eagle medium and nutrient mixture F-12 (D-MEM/F-12 1×, liquid, with L-Glutamine) supplemented with 10% fetal bovine serum, 1% Penicillin/Streptomycin solution, and 50 μM AP-5 blocker. Antibiotics: The complete medium as indicated above is supplemented with 100 μg/mL hygromycin, 15 μg/mL blasticidin and 1 μg/mL puromycin. Induction of Expression-. 2.5 μg/mL tetracycline is added 24 h before start of experiments. Dose Formulation Dose levels are in terms of test compounds, as supplied. Vehicle will be added to achieve a stock concentration of 10 mM (storage at −10° C. to −30° C.). A further stock solutions of 1.0 mM will be prepared in DMSO. Details of stock solution usage (thawing, dose formulations) will be documented in the raw data. The time period of stock solution usage will be detailed in the report. Test Compound Concentrations Dose levels, are in terms of test compounds, as supplied. Vehicle will be added to achieve a stock concentration of 10 mM (storage at −10° C. to −30° C.). A further stock solutions of 1.0 mM will be prepared in DMSO. Details of stock solution usage (thawing, dose formulations) will be documented in the raw data. The time period of stock solution usage will be detailed in the report. One test concentration of 1.0 μM will be tested. All test solutions will be prepared by diluting the stock solutions with either Mg-free bath solution only or Mg-free bath solution containing NMDA (300 μM) and glycine (8.0 μM) shortly prior to the electrophysiological experiments and kept at room temperature (19° C. to 30° C.) when in use. 0.1% DMSO will be used as vehicle. Frequency of preparation. For each test concentration, fresh solutions of test compounds will be prepared every day. Stability of dose formulation: All preparation times will be documented in the raw data. Any observations regarding instability of test compounds will be mentioned in the raw data. Storage of dose formulation: On the day of experimentation dose formulations will be maintained at room temperature (19° C. to 30° C.) when in use, Bath Solutions For preparing the experiments and for formation of the giga-ohm-seal, the following standard bath solution will be used: Sodium Chloride: 137 mM; Potassium Chloride: 4 mM; Calcium Chloride: 1.8 mM; Magnesium Chloride: 1 mM; HEPES: 10 mM; D-Glucose: 10 mM; Cremophor: 0.02%; pH (NaOH): 7.4
The 1× intracellular solution will be thawed every day out of a frozen 1× intracellular solution, which has been prepared prior to the experimental start of the present study, aliquoted and stored at −10° C. to −30° C. When in use, the 1× intracellular solution will kept at room temperature (19° C. to 30° C.). Remaining 1× intracellular solution will be stored in the fridge (1° C. to 9° C.). The 1× intracellular solution will include the components outlined below: Potassium Chloride: 130 mM; Magnesium Chloride: 1 mM; Mg-ATP: 5 mM; HEPES: 10 mM; EGTA: 5 mM; pH (KOH): 7.2 Cell Treatment For this study, cells will continuously be perfused with NMDA/Glycine, Test Compound or Test Compound/NMDA/Glycin. In every case, at least 30-second prewash steps with a test compound will be performed in between applications. For details see Table A below. Each experiment type will be analyzed in at least n=3 isolated cells. […]

[2] = molecular target: glutamate-activated channels of the GRIN1/2A subtype (Homo sapiens (Human), UniProt Q05586+Q12879); assay: Automated patch-clamp (QPatch HTX), NMDA receptor GRIN1/2A in HEK 293 cells; format: cell-based; conditions: HEK 293 cells stably transfected with GRIN1/2A; 300 μM NMDA + 8 μM glycine; holding potential −80 mV; read-out: AVG_ EC50 2A
Chain of glutamate-activated channels of the GRIN1/2A subtype (Q12879 23-1464, other chains not shown): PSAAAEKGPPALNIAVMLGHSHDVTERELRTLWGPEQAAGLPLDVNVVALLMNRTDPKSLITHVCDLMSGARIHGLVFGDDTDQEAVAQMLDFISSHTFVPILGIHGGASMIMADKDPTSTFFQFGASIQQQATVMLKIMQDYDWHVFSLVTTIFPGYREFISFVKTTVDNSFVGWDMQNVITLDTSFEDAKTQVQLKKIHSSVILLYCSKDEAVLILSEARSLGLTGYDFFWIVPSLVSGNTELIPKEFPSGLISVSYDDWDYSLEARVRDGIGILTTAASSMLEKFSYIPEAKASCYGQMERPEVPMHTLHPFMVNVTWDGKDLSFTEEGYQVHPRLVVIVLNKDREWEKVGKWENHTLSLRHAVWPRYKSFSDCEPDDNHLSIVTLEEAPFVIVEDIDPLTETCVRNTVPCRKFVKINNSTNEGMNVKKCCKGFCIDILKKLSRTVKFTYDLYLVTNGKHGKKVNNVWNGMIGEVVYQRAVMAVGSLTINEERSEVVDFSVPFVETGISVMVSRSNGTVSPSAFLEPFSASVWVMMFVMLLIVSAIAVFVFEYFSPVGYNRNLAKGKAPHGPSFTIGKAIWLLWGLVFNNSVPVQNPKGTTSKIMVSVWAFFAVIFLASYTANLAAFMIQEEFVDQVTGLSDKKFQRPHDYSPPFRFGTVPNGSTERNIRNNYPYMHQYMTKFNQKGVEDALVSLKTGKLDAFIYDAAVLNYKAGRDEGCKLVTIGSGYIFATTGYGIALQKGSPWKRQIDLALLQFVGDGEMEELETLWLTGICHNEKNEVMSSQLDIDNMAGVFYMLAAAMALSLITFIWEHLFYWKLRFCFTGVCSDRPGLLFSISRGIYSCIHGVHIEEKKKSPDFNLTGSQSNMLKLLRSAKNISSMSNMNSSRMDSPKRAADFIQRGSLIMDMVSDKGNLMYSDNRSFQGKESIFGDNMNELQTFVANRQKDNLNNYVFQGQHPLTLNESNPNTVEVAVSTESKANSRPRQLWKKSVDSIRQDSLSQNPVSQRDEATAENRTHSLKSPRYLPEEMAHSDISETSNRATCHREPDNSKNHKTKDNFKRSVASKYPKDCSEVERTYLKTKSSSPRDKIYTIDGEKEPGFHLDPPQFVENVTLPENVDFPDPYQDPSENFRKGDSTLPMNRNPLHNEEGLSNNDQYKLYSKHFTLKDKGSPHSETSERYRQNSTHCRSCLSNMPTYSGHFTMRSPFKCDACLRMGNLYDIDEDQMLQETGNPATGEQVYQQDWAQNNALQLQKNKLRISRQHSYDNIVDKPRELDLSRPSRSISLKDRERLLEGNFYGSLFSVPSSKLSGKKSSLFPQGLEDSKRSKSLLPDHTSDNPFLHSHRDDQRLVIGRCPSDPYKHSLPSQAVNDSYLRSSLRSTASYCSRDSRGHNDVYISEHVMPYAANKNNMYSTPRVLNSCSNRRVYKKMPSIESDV
Method: as §1
In this study, HEK 293 cells stably transfected with glutamate-activated channels of the GRIN1/2A subtype will be used together with submaximal NMDA concentrations (300 μM NMDA, co-application with 8 μM Glycine) to investigate the negative allosteric modulation of the test compounds.
as §2
The 1× bath solution will be prepared by diluting 10× bath solution without Glucose and 100× Glucose solution with water at least every 7 days. Both stock solutions have been prepared prior to the experimental start of the present study and stored at 1° C. to 9° C. (10× bath solution) or −10° C. to −30° (100× Glucose solution). The batch number(s) of the bath solution(s) used in the experiments will be documented in the raw data. When muse, the 1× bath solution will be kept at room temperature (19° C. to 30° C.). When not in use, the 1× bath solution will be stored at 1° C. to 9° C.
After the giga-seal was formed the following Mg-free bath solution will be used: […]

Chain of NMDA receptor 2B (Q13224 27-1484, other chains not shown): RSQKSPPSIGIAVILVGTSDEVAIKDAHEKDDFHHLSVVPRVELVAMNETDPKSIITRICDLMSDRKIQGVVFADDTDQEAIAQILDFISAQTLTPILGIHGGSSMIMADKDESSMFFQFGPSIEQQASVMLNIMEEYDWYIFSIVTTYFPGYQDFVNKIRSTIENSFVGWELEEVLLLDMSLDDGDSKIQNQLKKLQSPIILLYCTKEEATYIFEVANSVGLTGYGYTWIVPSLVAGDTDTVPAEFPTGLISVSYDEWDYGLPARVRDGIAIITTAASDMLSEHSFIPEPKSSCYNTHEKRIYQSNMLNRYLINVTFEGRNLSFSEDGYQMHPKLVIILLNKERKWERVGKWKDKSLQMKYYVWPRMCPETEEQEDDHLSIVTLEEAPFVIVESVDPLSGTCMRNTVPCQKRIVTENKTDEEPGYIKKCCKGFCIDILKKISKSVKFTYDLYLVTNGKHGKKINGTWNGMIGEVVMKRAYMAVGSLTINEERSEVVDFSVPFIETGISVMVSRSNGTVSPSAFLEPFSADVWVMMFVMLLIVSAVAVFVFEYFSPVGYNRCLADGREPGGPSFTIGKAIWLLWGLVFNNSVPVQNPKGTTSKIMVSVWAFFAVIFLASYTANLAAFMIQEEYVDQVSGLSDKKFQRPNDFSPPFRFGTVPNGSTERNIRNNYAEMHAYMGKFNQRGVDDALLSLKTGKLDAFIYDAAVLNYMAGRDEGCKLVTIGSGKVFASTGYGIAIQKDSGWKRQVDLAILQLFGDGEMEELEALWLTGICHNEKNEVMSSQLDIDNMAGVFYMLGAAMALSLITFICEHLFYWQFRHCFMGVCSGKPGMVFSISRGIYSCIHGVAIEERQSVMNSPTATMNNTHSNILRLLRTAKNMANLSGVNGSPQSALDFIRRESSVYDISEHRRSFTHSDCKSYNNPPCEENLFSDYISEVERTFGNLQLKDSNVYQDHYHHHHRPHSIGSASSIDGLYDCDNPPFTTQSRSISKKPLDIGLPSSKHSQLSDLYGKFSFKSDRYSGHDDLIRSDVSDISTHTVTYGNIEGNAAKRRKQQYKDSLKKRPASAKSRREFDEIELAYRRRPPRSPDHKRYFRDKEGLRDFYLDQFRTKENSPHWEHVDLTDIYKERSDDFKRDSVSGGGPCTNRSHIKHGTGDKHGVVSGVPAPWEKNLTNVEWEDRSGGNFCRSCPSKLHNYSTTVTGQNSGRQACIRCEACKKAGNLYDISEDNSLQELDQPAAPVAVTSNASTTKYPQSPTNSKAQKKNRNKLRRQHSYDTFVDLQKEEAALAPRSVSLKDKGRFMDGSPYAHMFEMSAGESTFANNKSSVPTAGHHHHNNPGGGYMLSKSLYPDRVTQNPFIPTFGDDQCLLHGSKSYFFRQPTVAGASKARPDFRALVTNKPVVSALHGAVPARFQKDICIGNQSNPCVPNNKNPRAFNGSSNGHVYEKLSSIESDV

SMILES | EC50 [1] [nM] | Emax [1] [%] | EC50 [2] [nM]
C[C@@H]1C=C2C[C@@](C)(O)CC[C@]2(C)[C@H]2CC[C@]3(C)[C@@H]([C@H](C)CC[C@](C)(O)C(F)(F)F)CC[C@H]3[C@H]12 [Compound U6472] | 22 | 231 | 
CC[C@]1(O)CC[C@@]2(C)C(=CC(=O)[C@H]3C4CC[C@H]([C@H](C)CCC(C)(C)O)[C@@]4(C)CC[C@@H]32)C1 (some centres unmarked) [Compound U6461] | > 10000 | 53 | > 10000
C[C@H](CC[C@](C)(O)C(F)(F)F)[C@H]1CC[C@H]2[C@@H]3[C@@H](C)C=C4C[C@@](C)(O)CC[C@]4(C)[C@H]3CC[C@]12C [Compound U6473] | > 10000 | 47 | 
CC[C@]1(O)CC[C@@]2(C)C(=C[C@H](O)[C@H]3[C@@H]4CC[C@H]([C@H](C)CCC(C)(C)O)[C@@]4(C)CC[C@@H]32)C1 [Compound U6429] | 667 | 109 | 
CC[C@]1(O)CC[C@@]2(C)C(=C[C@@](C)(O)[C@H]3[C@@H]4CC[C@H]([C@H](C)CCC(C)(C)O)[C@@]4(C)CC[C@@H]32)C1 [Compound U6438] | > 10000 | 15 | > 10000
C[C@H](CC1(O)CCC(C)(C)CC1)[C@H]1CC[C@H]2[C@@H]3[C@@H](C)C=C4C[C@@](C)(O)CC[C@]4(C)[C@H]3CC[C@]12C [Compound U6478] | 160 | 127 | 191
CC[C@]1(O)CC[C@@]2(C)[C@@H](C[C@H](O)[C@@H]3[C@@H]2CC[C@]2(C)[C@@H]([C@H](C)CCC(C)(C)O)CC[C@@H]32)C1 [Compound U6479] | 1420 | 92 | > 10000
CC[C@]1(O)CC[C@@]2(C)[C@@H](CC(=O)[C@@H]3[C@@H]2CC[C@]2(C)[C@@H]([C@H](C)CCC(C)(C)O)CC[C@@H]32)C1 [Compound U6410] | > 10000 | 44 | > 10000
CC[C@]1(O)CC[C@@]2(C)C(=C[C@@H](O)[C@H]3[C@@H]4CC[C@H]([C@H](C)CCC(C)(C)O)[C@@]4(C)CC[C@@H]32)C1 [Compound U6450] | 66 | 111 | 
C[C@@H]1C=C2C[C@@](C)(O)CC[C@]2(C)[C@H]2CC[C@]3(C)[C@@H]([C@H](C)CC4(O)CCC(C)(C)CC4)CC[C@H]3[C@H]12 [Compound U6477] | 698 | 86 | 747
CC[C@]1(O)CC[C@@]2(C)C(=C[C@H](C)[C@H]3[C@@H]4CC[C@H]([C@H](C)CCC(C)(C)O)[C@@]4(C)CC[C@@H]32)C1 [Compound U6409] | > 10000 | 71 | > 10000
CC[C@]1(O)CC[C@@]2(C)C(=C[C@](C)(O)[C@H]3[C@@H]4CC[C@H]([C@H](C)CCC(C)(C)O)[C@@]4(C)CC[C@@H]32)C1 [Compound U6437] | 741 | 213 | 1620
CC[C@]1(O)CC[C@@]2(C)C(=C[C@@H](C)[C@H]3[C@@H]4CC[C@H]([C@H](C)CCC(C)(C)O)[C@@]4(C)CC[C@@H]32)C1 [Compound U6408] | 132 | 447 | 230
